Data from PMC12654037, “Norditerpene Natural Products from Subterranean Fungi with Anti-Parasitic Activity” (Microorganisms, 2025).

Key:
[1] = Microsomal stability assay, mouse; conditions: microsomes, pH 7.4
Description: Microsomal stability assay. The in vitro microsomal stability assay was conducted in duplicate in commercially available mouse or human liver microsomes (Sekisui XenoTech, Kansas City, KS, USA), which were supplemented with nicotinamide adenine dinucleotide phosphate (NADPH) as a cofactor. […] The reaction was initiated by the addition of 1 mmol/L NADPH, followed by incubation at 37 °C. A negative control was performed in parallel without NADPH to reveal any chemical instability or non-NADPH dependent enzymatic degradation for each compound. […] At various time points (0, 5, 15, 30, and 60 min), a 40 µL of reaction aliquot was taken and quenched with 120 µL of acetonitrile containing 0.1% formic acid. The samples were then vortexed and centrifuged at 15,000 rpm for 5 min at 4 °C. The supernatants were collected and analyzed by LC-MS/MS to determine the in vitro metabolic half-life (t1/2).

TgRH-Luc:GFP = experiment: T. gondii -static versus -cidal washout assay; assay type: cell-based, Toxoplasma gondii; conditions: for treatment time after which T. gondii did not recover (killing time): at EC90 15 µM, compound washed out, read 48 h post-infection
Description: T. gondii growth inhibition assays: The T. gondii inhibition assay was described previously. Briefly, HFF cells were seeded onto white-sided, clear-bottom 96 well plates, grown to confluence, and then 5000 TgRH-Luc:GFP parasites were added to each well. At 24 hpi, compounds or DMSO were added. The growth of the parasites was determined by relative luminescence at 48 hpi using Promega Bright-Glo (Promega, Madison, WI, USA) substrate. Plates were read, and the percent inhibition of parasite growth was calculated as described above. Determination of -static versus -cidal activity was conducted as indicated above, with parasite growth quantified after 48 h of infection. Each sample was run in triplicate, and each experiment was repeated three times.

[2] = tested on: C. parvum asexual and sexual stages; experiment: C. parvum asexual/sexual stage assay (4 h treatment windows); assay type: cell-based, Cryptosporidium parvum
Description: To determine -static versus -cidal activity, the infection assay was conducted as described, but infected cells were treated with compounds for 30 min up to 24 h. The compounds were removed after the designated times, and infection was quantified at 72 h post-infection. To determine the activity of the compounds against asexual and sexual stages of the parasite, compounds were added for 4 h windows at times corresponding to asexual or sexual development. Parasite proliferation was then determined at 72 h post-infection. For all assays, each sample was run in triplicate, and three biological replicates were performed.

P. falciparum 3D7 = experiment: Plasmodium falciparum growth inhibition assay (SYBR Green I), 3D7; conditions: 3D7, 72 h, read-out: EC50 3D7(M)
Description: Plasmodium falciparum growth inhibition assay: Antiplasmodial EC50 results were determined using a fluorescence-based SYBR Green I assay performed using asynchronous cultures [30, 35]. […] Plates were subsequently frozen at −80 °C to facilitate lysis. […] Relative fluorescence units (RFUs) were normalized based on chloroquine-treated and no treatment controls. Serial dilutions of compounds were prepared in RPMI with final assay conditions of ≤0.2% DMSO. Each assay was conducted in triplicate with three biological replicates.

C. parvum = experiment: Inhibition of C. parvum infection in IFNγ −/− mice; assay type: in vivo, C57BL/6 IFNγ −/− mice; conditions: 4 mg/kg oral gavage every 12 h, four doses, days 5 and 6 post-infection, AUC of RLUs/gram feces
Description: (§1) Inhibition of C. parvum infection in IFN-gamma knock-out (IFNγ −/−) mice: Twelve female C57BL/6 IFNγ −/− mice (4 weeks old) from the Jackson Laboratory were housed in a controlled environment with a 12 h light/dark cycle and access to food and water ad libitum. Cp-NLuc oocysts were isolated from infected mouse feces and purified using a sodium chloride density gradient. Mice were inoculated via oral gavage with a suspension of 10^4 oocysts in 50 µL sterile PBS. On days 5 and 6 post-infection, mice were treated with 4 mg/kg of oidiolactone A or DMSO vehicle control every 12 h for a total of four doses (6 mice per treatment group). Fecal samples were collected daily and stored at −20 °C until analysis. Feces were homogenized in a lysis buffer solution, centrifuged, and the supernatant was incubated with Nano-Glo® substrate in a 96-well plate, as previously described. Luminescence was measured in a microplate reader immediately after substrate addition. Oocyst shedding, measured in RLUs/gram of feces, was plotted over time, and the area under the curve was determined for each mouse. Mice were sacrificed 14 days post-infection, and serum was collected for biochemical analysis. Biochemical analyses were performed using the Beckman Coulter AU480 automated analyzer (Beckman Coulter, Brea, CA, USA) at the Clinical Pathology Laboratory, Veterinary Medical Center, University of Minnesota.

[3] = Serum biochemical analysis of infected and treated IFNγ −/− mice; assay type: in vivo, C57BL/6 IFNγ −/− mice
Description: as §1

[4] = tested on: G. lamblia WBC6 and CBG99 trophozoites; experiment: Giardia lamblia trophozoite growth inhibition assay; assay type: cell-based
Description: Compound inhibition assay against Giardia lamblia WBC6 and CBG99 trophozoites: Biological replicates of growth inhibition assays were performed using wild-type G. lamblia WBC6 and G. lamblia CBG99 trophozoites at 37 °C under reduced oxygen conditions in a sealed 0.5 mL airtight sterile tube (USA Scientific, Ocala, FL, USA), following the susceptibility assay described below. G. lamblia trophozoites were grown in TYI-S-33 medium supplemented with 10% bovine serum and 0.05 mg/mL bovine bile, as previously described. A 3-fold serial concentration of pure compounds starting at 29 µM was screened against 75,000 cells/mL of parasites in modified TYI-S-33 medium with a final dimethyl sulfoxide (DMSO) concentration of 0.14%. Metronidazole was run in parallel at a final highest concentration of 66.7 µM and 3-fold subsequent serial dilutions. The untreated negative control contained 0.14% of DMSO. Sealable test tubes filled to its maximum volume of 700 µL were used to perform this assay. The test tubes were incubated at 37 °C for 72 h. After incubation, the tubes were chilled on ice, and the reaction was transferred to 96-well plates. In the plate, 50 µL of an ATP binding luminescence marker, CellTiter-Glo (Promega, Madison, WI, USA) or 10 µL of 2.5 mg/mL d-luciferin (GoldBio, St Louis, MO, USA) was added to each well and allowed to develop at room temperature for 10 min [31, 36]. The assay was read and analyzed using an EnVision Plate Reader (Perkin Elmer, Waltham, MA, USA). Response curves and EC50 values (the concentration at which 50% of G. lamblia trophozoite growth was inhibited) were calculated using GraphPad Prism (GraphPad, LaJolla, CA, USA).

**Q.** Which half-life at 1 µmol/L [1] does the source give for `CO[C@H]1OC(=O)C=C2[C@@]13O[C@@H]3[C@H]1OC(=O)[C@@]3(C)CCC[C@@]2(C)[C@@H]13` [compound 1, oidiolactone A] here?
**A.** The half-life at 1 µmol/L was 1.84 ± 0.0717 h.

**Q.** And the EC90 (TgRH-Luc:GFP; Toxoplasma gondii)?
**A.** Its EC90 is 15 µM.

**Q.** What about the “treatment time after which T. gondii did not recover (killing time)” value (TgRH-Luc:GFP; listed as Oidiolactone A) of the same compound?
**A.** Its value is ≤ 24 h.

**Q.** And the “treatment time after which T. gondii did not recover (killing time)” value (TgRH-Luc:GFP; listed as oidiolactone A)?
**A.** The value was 8 to 12 h.

**Q.** And the “activity against gamete stages” value ([2]; 7.5 μM, 4 h intervals)?
**A.** Its value is “no activity”.

**Q.** And the inhibition at 7.5 µM ([2]; Cryptosporidium parvum, 4 h intervals post-infection, read 72 h, read-out: inhibition of parasites in asexual stage and transition to sexual stages)?
**A.** Its inhibition at 7.5 µM is 20 to 75%.

**Q.** What about the EC50 (P. falciparum 3D7) of the same compound?
**A.** The EC50 was 3.33e-06 ± 6.4e-07 M.

**Q.** What about the “reduction in C. parvum oocyst shedding” value (C. parvum) of the same compound?
**A.** Its value is 70%.

**Q.** And the “signs of acute toxicity (liver, renal, metabolic, cardiac functions, protein status, electrolytes vs control)” value ([3]; 4 mg/kg x 4 doses, serum day 14)?
**A.** The value was “no statistically significant differences”.

**Q.** And the “LIH (sum of lipemia, icterus, and hemolysis scores per mouse)” value ([3]; serum, mean ± SD)?
**A.** Its value is 1.5 ± 0.71.

**Q.** What about the ALP ([3]; serum, mean ± SD of two mice) of the same compound?
**A.** Its ALP is 182.00 ± 15.56 U/L.

**Q.** What about the ALT ([3]; serum, mean ± SD of two mice) of the same compound?
**A.** Its ALT is 37.50 ± 6.36 U/L.

**Q.** What about the AST ([3]; serum, mean ± SD of two mice) of the same compound?
**A.** The AST was 229.50 ± 31.82 U/L.

**Q.** And the Alb ([3]; serum, mean ± SD of two mice)?
**A.** The Alb was 3.30 ± 0.14 g/dL.

**Q.** What about the Amy ([3]; serum, mean ± SD of two mice) of the same compound?
**A.** The Amy was 456.00 ± 80.61 U/L.

**Q.** And the “An Gap (calc.)” value ([3]; serum, mean ± SD of two mice)?
**A.** Its value is 27.00 ± 1.41.

**Q.** What about the BUN ([3]; serum, mean ± SD of two mice) of the same compound?
**A.** Its BUN is 21.50 ± 4.95 mg/dL.

**Q.** What about the CK ([3]; serum, mean ± SD of two mice) of the same compound?
**A.** The CK was 1618.00 ± 376.18 U/L.

**Q.** And the Ca ([3]; serum, mean ± SD of two mice)?
**A.** Its Ca is 10.55 ± 0.07 mg/dL.

**Q.** What about the Chol ([3]; serum, mean ± SD of two mice) of the same compound?
**A.** Its Chol is 92.50 ± 7.78 mg/dL.

**Q.** And the Creat ([3]; serum, mean ± SD of two mice)?
**A.** The Creat was 0.00 ± 0.00 mg/dL.

**Q.** What about the GGT ([3]; serum, mean ± SD of two mice) of the same compound?
**A.** The GGT was 0.00 ± 0.00 U/L.

**Q.** And the “Glob (calc.)” value ([3]; serum, mean ± SD of two mice)?
**A.** The value was 1.55 ± 0.07 g/dL.

**Q.** What about the Gluc ([3]; serum, mean ± SD of two mice) of the same compound?
**A.** Its Gluc is 280.00 ± 15.56 mg/dL.

**Q.** And the HCO3 ([3]; serum, mean ± SD of two mice)?
**A.** Its HCO3 is 14.85 ± 1.48 mmol/L.

**Q.** And the K ([3]; serum, mean ± SD of two mice)?
**A.** Its K is 5.15 ± 0.07 mmol/L.

**Q.** What about the Mg ([3]; serum, mean ± SD of two mice) of the same compound?
**A.** The Mg was 2.75 ± 0.07 mg/dL.

**Q.** And the Na ([3]; serum, mean ± SD of two mice)?
**A.** Its Na is 149.50 ± 0.71 mmol/L.

**Q.** What about the “Osmol (calc.)” value ([3]; serum, mean ± SD of two mice) of the same compound?
**A.** The value was 310.00 ± 1.41.

**Q.** And the Phos ([3]; serum, mean ± SD of two mice)?
**A.** Its Phos is 10.25 ± 0.35 mg/dL.

**Q.** And the “T. Bili” value ([3]; serum, mean ± SD of two mice)?
**A.** The value was 0.10 ± 0.00 mg/dL.

**Q.** What about the TP ([3]; serum, mean ± SD of two mice) of the same compound?
**A.** The TP was 4.85 ± 0.21 g/dL.

**Q.** And the “activity against G. lamblia (no activity up to)” value ([4]; 72 h)?
**A.** The value was > 29 µM.

**Q.** And the EC50 ([4]; Giardia duodenalis, read-out: EC50 G. lamblia)?
**A.** The EC50 was > 30 µM.
